Measured values as given in patent US20060052390A1, “Treatment of multiple myeloma by p38 MAP kinase and proteasome inhibition” (Scios, Inc., priority 2003, published 2006).
“Also recorded” adds a separate entry of the source. Where a name gives a salt, the structure may show the parent alone. Residues, ends and D or L forms follow the SMILES beside them. *: point of attachment. Cbz = O=C(OCc1ccccc1)*

Legend:
MM cells [1] = assay: treatment of a patient with multiple myeloma; format: in vivo; conditions: in combination with VELCADE
Text: A patient is diagnosed with multiple myeloma. The patient presents with MM cells with rapid growth rates, which displace osteoblasts, and disrupting the balance of bone creation and destruction. A number of MM-related cytokines, such as IL-6, VEGF, IL-11, and PGE-2 are detectable. […] MM cell growth is inhibited and MM-related cytokine product is reduced. A patient diagnosed with multiple myeloma receives VELCADE and responds well until VELCADE-resistant MM cells develop. Drug resistant MM cells with rapid growth rates begin to populate the bone marrow of the subject. Elevated levels of MM-related cytokines, such as IL-6, VEGF, IL-11, and PGE-2 are again detectable.

MM cells [2] = assay: MM cell viability and proliferation with proteasome inhibitor MG-132; format: cell-based; conditions: for proliferation: MG-132 alone
MAPKAPK-2 = MAPKAPK-2 in vitro kinase assay on immunoprecipitates of cell lysates, GST-Hsp27 substrate; format: cell-based; conditions: 0.5 μM
Method: (§1) Total cell lysates are immunoprecipitated with anti-MAPKAPK-2 antibody and subjected to in vitro kinase assays using purified GST-Hsp27 as substrate. To examine Hsp27 phosphorylation in MM and transformed B cells, U266, IM9 and RPMI8226 cells are incubated either with DMSO or with 0.5 μM of a p38 MAPK inhibitor and cell lysates are immunoblotted with antibodies to phospho-Hsp27 (Ser 82) and Hsp27.

Hsp27 = assay: Western blot of heat shock protein levels in MM cells; format: cell-based
Method: as §1
Cells are collected at various times and lysates are examined by Western Blot analysis using specific antibodies against particular proteins, with GAPDH as loading control. Specific antibodies to Hsp70 and Hsp90 are from Santa Cruz Biotechnology (Santa Cruz, Calif.).
The Western blots are examined for the total Hsp27 and phospho-Hsp27 levels at three different exposure times. […] This is consistent with observations made previously in MM.1S cells. […] This phenomenon appears to be unique to Hsp27 since a decrease in the levels of Hsp70 or Hsp90 in these same samples is not observed. […] The decrease of phospho-Hsp27 levels in the PS-341-treated cells is commensurate with the decrease of total Hsp27 protein in these cells.

RANKL mRNA = RANKL mRNA induction in BMSC and MM/BMSC cultures; format: cell-based; conditions: 100 nM
Method: In addition, 100 nM of these p38 MAPK inhibitors blocks the weaker induction of RANKL by IL-6 in BMSC.

MM/BMSC co-cultures = assay: MM cell proliferation in MM/BMSC co-cultures with MG-132; format: cell-based; conditions: MM cells co-cultured with BMSC; FIG. 7
Method: Thus, proteasome inhibitors such as VELCADE might be limiting their own ability to induce apoptosis of MM cells by inducing growth-supporting activity in the microenvironment. Inhibition of the p38 response by BMSC would counteract this support.
For these studies, U266, IM9 and RPMI8226 cells are incubated with DMSO (−) or with 0.5 μM of a disclosed p38 MAPK inhibitor (+) for 1 hour and cell lysates are immunoblotted with antibodies to phospho-p38 and p38 MAP kinase by Western analysis. U266B1 and RPMI8226 are MM cell lines, and IM9 is an Epstein Barr Virus (EBV)-transformed B cell line with characteristics of MM cells. All can be obtained from American Type Culture Collection (ATCC; Rockville, Md.). All cell lines are maintained in RPMI-1640 (ATCC), supplemented with 10% fetal bovine serum (Hyclone; Logan, Utah), 100 units/ml of penicillin, 100 μg/ml streptomycin and 2 mM L-glutamine (Life Technologies, Inc.; Grand Island, N.Y.). BMSC (Cambrex) are maintained in Myelocult H5100 supplemented with 10^−6 M hydrocortisone (Stem Cell Technologies; Vancouver, B.C.), 100 units/ml of penicillin and 100 μg/ml streptomycin. MM cells are usually seeded at a density of 3×10^4 cells/well in 96-well culture plates. For MM co-cultures, BMSC are first seeded at 1.2×10^4 cells/well in a 96-well plate in Myelocult/hydrocortisone medium for 24 hours prior to the addition of MM cells.

HSP-27 = assay: immunodetection of phospho-HSP-27 in MM cells and BMSC; format: cell-based
Method: as §1
U266, IM9 and RPMI8226 cells are incubated with 0.5 μM of the p38 MAPK inhibitor for 1hour and Hsp27 proteins are immunoprecipitated with agarose-conjugated Hsp27 antibody, followed by immunoblotting with anti-phospho Hsp27 (Ser 78) antibody.
(§2) Specific antibodies to p38 MAP kinase are from Santa Cruz Biotechnology (Santa Cruz, Calif.). Antibodies to phospho-p38 MAP kinase (T180/Y182) and phospho-Hsp27 (S82) are from Cell Signaling (Beverly, Mass.). Antibodies to Hsp27 and phospho-Hsp27 (S78) are from Upstate Biotechnology (Lake Placid, N.Y.). Anti-MAPKAPK-2 is from StressGen (San Diego, Calif.) while anti-GAPDH is from Biogenesis Ltd. (Poole, UK).

p38α MAPK = target: T1, p38α MAPK (Homo sapiens, UniProt Q16539); assay: p38α phospho-specific immunodetection in MM cells and BMSC; format: cell-based; conditions: BMSC treated with MG-132
T1 construct: endogenous in cells; host or cells: U266, IM9, RPMI8226 cells; BMSC
T1 sequence (Q16539 whole entry): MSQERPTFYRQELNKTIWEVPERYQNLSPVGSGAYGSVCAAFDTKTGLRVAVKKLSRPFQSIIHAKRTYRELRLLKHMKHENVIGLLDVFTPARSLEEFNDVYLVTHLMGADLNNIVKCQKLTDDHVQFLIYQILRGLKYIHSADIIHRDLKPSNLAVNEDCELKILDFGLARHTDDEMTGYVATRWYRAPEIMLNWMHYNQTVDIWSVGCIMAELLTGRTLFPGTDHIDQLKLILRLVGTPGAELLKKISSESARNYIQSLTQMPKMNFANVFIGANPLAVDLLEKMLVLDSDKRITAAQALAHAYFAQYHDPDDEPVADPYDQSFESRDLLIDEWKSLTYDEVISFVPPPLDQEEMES
Text: as §2

[3] = test system: calpains, cathepsins, and other lysosomal enzymes; conditions: cited from earlier work
RPMI8226 cells = assay: apoptosis by Annexin V-PE flow cytometry in RPMI8226 cells; format: cell-based
Method: Cells are collected at indicated times and assayed.
(§3) Detection of apoptotic cells was performed by staining with Annexin V-Phycoerythrin (PE) and 7-Amino Actinomycin D (7-AAD) (BD Pharmigen; San Diego, Calif.). Samples are analyzed by dual color flow cytometry using a FACScan laser flow cytometer and Cell Quest software (Becton Dickinson; San Jose, Calif.). 7-AAD is a nucleic acid dye that is used to exclude nonviable cells in flow cytometric assays. Cells that are Annexin V-PE positive and 7-AAD negative are considered early apoptotic. Antibodies to caspase-3, -6, -7, -8, -9, and PARP are from Cell Signaling (Beverly, Mass.).

[4] = MM patients; cited from earlier work
caspases and PARP = assay: Western blot of caspase activation and PARP cleavage in MM cells; format: cell-based; conditions: RPMI8226; increasing duration of PS-341 treatment
Method: as §3
Protein lysates from RPMI8226 cells obtained at these time points are collected in parallel and examined for Hsp27 levels, caspase activation and PARP cleavage by Western blot analysis.

[5] = RPMI8226, 10 nM PS-341, 8 hours

## C[C@@H]1CN(Cc2ccc(F)cc2)[C@@H](C)CN1C(=O)c1cc2c(C(=O)C(=O)N(C)C)cn(C)c2cc1Cl [Compound 57 hydrochloride salt]
MM cells [1]; patient with VELCADE-resistant MM
  sensitivity of the MM cells to VELCADE: restores the sensitivity
MM cells [1]; patient
  MM-related cytokine product: reduced
MM cells [1]; patient, listed as Compound 57 in the hydrochloric salt form
  MM cell growth: again inhibited

## C[C@@H]1CN(Cc2ccc(F)cc2)[C@@H](C)CN1C(=O)c1cc2c(C(=O)C(=O)N(C)C)cn(C)c2cc1Cl [Compound 57]
MM cells [2]; MG-132 in the presence of the p38 MAPK inhibitor, related to the dose of both
  IM9 proliferation: reduced or entirely blocked
MM cells [2]; co-exposure with MG-132, MM cells, FIG. 6
  effect on the reduction of MM cell viability and proliferation caused by MG-132: enhanced the reduction of MM cell viability and proliferation; also recorded: enhances the anti-proliferative effect
MAPKAPK-2
  activity of downstream substrate MAPKAPK-2: suppresses
Hsp27; 0.5 μM with 10 nM PS-341, 12 and 16 hours, RPMI8226 and IM9 cells
  total Hsp27: enhanced reduction
Hsp27; inhibitor alone, even after prolonged incubation
  total Hsp27 levels: does not affect
RANKL mRNA; BMSC
  induction of RANKL by IL-6: blocks
RANKL mRNA; BMSC and MM/BMSC cultures, FIG. 5
  induction of RANKL mRNA by TGFβ and IL-1: blocked this induction
RANKL mRNA; FIG. 5
  basal expression of RANKL mRNA: blocked
MM/BMSC co-cultures
  effect on the ability of MG-132 to reduce MM cell proliferation: enhanced the ability of MG-132 to reduce MM cell proliferation; also recorded: enhances the anti-proliferative effect
HSP-27; BMSC
  phosphorylation of HSP-27: blocked phosphorylation of HSP-27 completely
HSP-27; MM cells
  phosphorylation of HSP-27: blocked phosphorylation of HSP-27 completely
HSP-27; U266, IM9 and RPMI8226, 0.5 μM, cell lysates or immunoprecipitation
  Hsp27 phosphorylation: inhibits
HSP-27; both drugs (PS-341 and p38 MAPK inhibitor), all time points
  Hsp27 phosphorylation: complete inhibition

## CC(C)C[C@@H](C=O)NC(=O)[C@H](CC(C)C)NC(=O)[C@H](CC(C)C)NC(=O)OCc1ccccc1 [MG-132, Carbobenzoxy-L-Leucyl-L-Leucyl-L-Leucinal, reference compound] (Cbz-Leu-Leu-Leu-aldehyde)
MM cells [2]; HS Sultan MM cells
  proliferation: block completely
MM cells [2]; IM9 MM cells
  sensitivity of proliferation to MG-132 alone: not sensitive
MM cells [2]; U266 MM cells
  proliferation: block completely
p38α MAPK
  activation of p38: resulted in activation of p38
[3]
  concentrations with activity against calpains, cathepsins and other lysosomal enzymes, above those used in the disclosed experiments: ≥ 10 -fold

## CC(C)C[C@H](NC(=O)[C@H](Cc1ccccc1)NC(=O)c1cnccn1)B(O)O [PS-341]
RPMI8226 cells; 10 nM PS-341, 8 hours
  apoptotic cells: early apoptotic cells are apparent
RPMI8226 cells; 10 nM PS-341, 12 hours
  apoptotic cells: about half the cells
RPMI8226 cells; 10 nM PS-341, 16 hours
  apoptotic cells: most
Hsp27; RPMI8226, 10 nM PS-341, 12 and 16 hours
  Hsp27 protein levels: reduced
Hsp27; [5]
  Hsp27 expression: induced
  Hsp70 expression: induced
Hsp27; RPMI8226, 10 nM PS-341, same samples
  decrease in the levels of Hsp70 or Hsp90: not observed
[4]
  clinically observed circulating concentration: 40 to 100 nM
Caspases and PARP
  PARP cleavage: proportional increase
  activation or cleavage of procaspases-8, -9, -3, -6, and -7: successively increasing activation or cleavage
